Test results as given in patent US6355799B1, “Substituted benzene compounds, process for their preparation, and herbicidal and defoliant compositions containing them” (ISK Americas Incorporated, priority 1997, dated 2002).

Tests used:
Type in all cases: in vivo
[1] = tested on: redroot pigweed (Amaranthus retroflexus, AMARE); assay: Pre-emerge test, greenhouse herbicide activity screening; details: for Pre-emerge herbicidal activity, phytotoxicity rating AMARE: rating scale 0-100, 14 days after application; for pest or weed control at 63 g/ha / pest or weed control at 250 g/ha: Amaranthus retroflexus, pre-emergence, 336 h, pre-emerge, phytotoxicity rating 0-100 at 14 days after application, read-out: Pre-emerge Herbicidal Activity AMARE; for pest or weed control at 63 g/ha: rate 63 g ai/ha; for pest or weed control at 250 g/ha: rate 250 g ai/ha
Summary of the method: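 Compounds in acetone were track-sprayed at 15-1000 g ai/ha (187 l/ha) on sandy loam pots: pre-emerge one day after seeding, post-emerge at 2-3 leaf stage with 0.25% v/v non-ionic surfactant. Phytotoxicity was rated 14 days later on a 0 (no damage) to 100 (complete death) scale.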

[2] = tested on: large crabgrass (Digitaria sanguinalis, DIGSA); assay: Post-emerge test, greenhouse herbicide activity screening; details: Digitaria sanguinalis, post-emergence, 336 h, post-emerge, phytotoxicity rating 0-100 at 14 days after application, read-out: Post-emerge Herbicidal Activity DIGSA; for pest or weed control at 63 g/ha: 63 g ai/ha; for pest or weed control at 250 g/ha: 250 g ai/ha
Summary of the method: (§1)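 Each test used a mechanized track sprayer delivering 187 l/ha of acetone solution at 15–1000 g ai/ha. Post-emerge foliage at 2–3 leaves was treated with added 0.25% v/v non-ionic surfactant and bottom-watered only. Injury was assessed on day 14, where 100 means total kill.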

[3] = tested on: ivyleaf morningglory (Ipomoea hederacea, IPOHE); assay: as above; details: Ipomoea, post-emergence, 336 h, post-emerge, phytotoxicity rating 0-100 at 14 days after application, read-out: Post-emerge Herbicidal Activity IPOHE; for pest or weed control at 63 g/ha: 63 g ai/ha; for pest or weed control at 250 g/ha: 250 g ai/ha
Summary of the method: as §1

[4] = tested on: sicklepod (Cassia obtusifolia, CASOB); assay: as above; details: Senna obtusifolia, post-emergence, 336 h, post-emerge, phytotoxicity rating 0-100 at 14 days after application, read-out: Post-emerge Herbicidal Activity CASOB; for pest or weed control at 63 g/ha: 63 g ai/ha; for pest or weed control at 250 g/ha: 250 g ai/ha
Summary of the method: as §1

[5] = tested on: green foxtail (Setaria viridis, SETVI); assay: as above; details: Setaria viridis, post-emergence, 336 h, post-emerge, phytotoxicity rating 0-100 at 14 days after application, read-out: Post-emerge Herbicidal Activity SETVI; for pest or weed control at 63 g/ha: 63 g ai/ha; for pest or weed control at 250 g/ha: 250 g ai/ha
Summary of the method: as §1

[6] = tested on: lambsquarters (Chenopodium album, CHEAL); assay: Pre-emerge test, greenhouse herbicide activity screening; details: for Pre-emerge herbicidal activity, phytotoxicity rating CHEAL: rating scale 0-100, 14 days after application; for pest or weed control at 63 g/ha / pest or weed control at 250 g/ha: Chenopodium album, pre-emergence, 336 h, pre-emerge, phytotoxicity rating 0-100 at 14 days after application, read-out: Pre-emerge Herbicidal Activity CHEAL; for pest or weed control at 63 g/ha: rate 63 g ai/ha; for pest or weed control at 250 g/ha: rate 250 g ai/ha
Summary of the method: (§2)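 Compounds in acetone were track-sprayed at 187 l/ha, 15–1000 g ai/ha, onto sandy loam pots. Pre-emerge seeds were sown one day before spraying, with surface watering afterwards. Post-emerge plants were at the 2–3 leaf stage and sprayed with 0.25% v/v non-ionic surfactant. Injury was rated 0–100 at 14 days.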

[7] = tested on: large crabgrass (Digitaria sanguinalis, DIGSA); assay: as above; details: for Pre-emerge herbicidal activity, phytotoxicity rating DIGSA: rating scale 0-100, 14 days after application; for pest or weed control at 63 g/ha / pest or weed control at 250 g/ha: Digitaria sanguinalis, pre-emergence, 336 h, pre-emerge, phytotoxicity rating 0-100 at 14 days after application, read-out: Pre-emerge Herbicidal Activity DIGSA; for pest or weed control at 63 g/ha: rate 63 g ai/ha; for pest or weed control at 250 g/ha: rate 250 g ai/ha
Summary of the method: as §2

[8] = tested on: johnsongrass (Sorghum halepense, SORHA); assay: as above; details: rating scale 0-100, 14 days after application
Summary of the method: as §2

[9] = tested on: velvetleaf (Abutilon theophrasti, ABUTH); assay: as above; details: for Pre-emerge herbicidal activity, phytotoxicity rating ABUTH: rating scale 0-100, 14 days after application; for pest or weed control at 63 g/ha / pest or weed control at 250 g/ha: Abutilon theophrasti, pre-emergence, 336 h, pre-emerge, phytotoxicity rating 0-100 at 14 days after application, read-out: Pre-emerge Herbicidal Activity ABUTH; for pest or weed control at 63 g/ha: rate 63 g ai/ha; for pest or weed control at 250 g/ha: rate 250 g ai/ha
Summary of the method: as §2

[10] = tested on: ivyleaf morningglory (Ipomoea hederacea, IPOHE); assay: as above; details: for Pre-emerge herbicidal activity, phytotoxicity rating IPOHE: rating scale 0-100, 14 days after application; for pest or weed control at 63 g/ha / pest or weed control at 250 g/ha: Ipomoea, pre-emergence, 336 h, pre-emerge, phytotoxicity rating 0-100 at 14 days after application, read-out: Pre-emerge Herbicidal Activity IPOHE; for pest or weed control at 63 g/ha: rate 63 g ai/ha; for pest or weed control at 250 g/ha: rate 250 g ai/ha
Summary of the method: as §2

[11] = tested on: barnyardgrass (Echinochloa crus-galli, ECHCG); assay: as above; details: for Pre-emerge herbicidal activity, phytotoxicity rating ECHCG: rating scale 0-100, 14 days after application; for pest or weed control at 63 g/ha / pest or weed control at 250 g/ha: Echinochloa crus-galli, pre-emergence, 336 h, pre-emerge, phytotoxicity rating 0-100 at 14 days after application, read-out: Pre-emerge Herbicidal Activity ECHCG; for pest or weed control at 63 g/ha: rate 63 g ai/ha; for pest or weed control at 250 g/ha: rate 250 g ai/ha
Summary of the method: as §2

[12] = tested on: sicklepod (Cassia obtusifolia, CASOB); assay: as above; details: for Pre-emerge herbicidal activity, phytotoxicity rating CASOB: rating scale 0-100, 14 days after application; for pest or weed control at 63 g/ha / pest or weed control at 250 g/ha: Senna obtusifolia, pre-emergence, 336 h, pre-emerge, phytotoxicity rating 0-100 at 14 days after application, read-out: Pre-emerge Herbicidal Activity CASOB; for pest or weed control at 63 g/ha: rate 63 g ai/ha; for pest or weed control at 250 g/ha: rate 250 g ai/ha
Summary of the method: as §2

[13] = tested on: green foxtail (Setaria viridis, SETVI); assay: as above; details: for Pre-emerge herbicidal activity, phytotoxicity rating SETVI: rating scale 0-100, 14 days after application; for pest or weed control at 63 g/ha / pest or weed control at 250 g/ha: Setaria viridis, pre-emergence, 336 h, pre-emerge, phytotoxicity rating 0-100 at 14 days after application, read-out: Pre-emerge Herbicidal Activity SETVI; for pest or weed control at 63 g/ha: rate 63 g ai/ha; for pest or weed control at 250 g/ha: rate 250 g ai/ha
Summary of the method: as §2

Compound: COc1c(Cl)cc(F)c(N2C(=O)c3ccccc3C2=O)c1NC(=O)c1ccc2ccccc2c1 [Compound 13-3, N-[4-chloro-6-fluoro-3-methoxy-2-(2-naphthoyl)aminophenyl]phthalimide]
- Pre-emerge herbicidal activity, phytotoxicity rating AMARE ([1]; 63 g ai/ha): 100
- Pre-emerge herbicidal activity, phytotoxicity rating AMARE ([1]; 250 g ai/ha): 100
- pest or weed control at 63 g/ha [2]: 0%
- pest or weed control at 250 g/ha [2]: 10%
- pest or weed control at 63 g/ha [3]: 75%
- pest or weed control at 250 g/ha [3]: 70%
- pest or weed control at 63 g/ha [4]: 90%
- pest or weed control at 250 g/ha [4]: 100%
- pest or weed control at 63 g/ha [5]: 10%
- pest or weed control at 250 g/ha [5]: 30%
- Pre-emerge herbicidal activity, phytotoxicity rating CHEAL ([6]; 63 g ai/ha): 90
- Pre-emerge herbicidal activity, phytotoxicity rating CHEAL ([6]; 250 g ai/ha): 100
- Pre-emerge herbicidal activity, phytotoxicity rating DIGSA ([7]; 63 g ai/ha): 0
- Pre-emerge herbicidal activity, phytotoxicity rating DIGSA ([7]; 250 g ai/ha): 30
- Pre-emerge herbicidal activity, phytotoxicity rating SORHA ([8]; 63 g ai/ha): 0
- Pre-emerge herbicidal activity, phytotoxicity rating SORHA ([8]; 250 g ai/ha): 10
- Pre-emerge herbicidal activity, phytotoxicity rating ABUTH ([9]; 63 g ai/ha): 0
- Pre-emerge herbicidal activity, phytotoxicity rating ABUTH ([9]; 250 g ai/ha): 20
- Pre-emerge herbicidal activity, phytotoxicity rating IPOHE ([10]; 63 g ai/ha): 0
- Pre-emerge herbicidal activity, phytotoxicity rating IPOHE ([10]; 250 g ai/ha): 0
- Pre-emerge herbicidal activity, phytotoxicity rating ECHCG ([11]; 63 g ai/ha): 0
- Pre-emerge herbicidal activity, phytotoxicity rating ECHCG ([11]; 250 g ai/ha): 10
- Pre-emerge herbicidal activity, phytotoxicity rating CASOB ([12]; 63 g ai/ha): 0
- Pre-emerge herbicidal activity, phytotoxicity rating CASOB ([12]; 250 g ai/ha): 30
- Pre-emerge herbicidal activity, phytotoxicity rating SETVI ([13]; 63 g ai/ha): 10
- Pre-emerge herbicidal activity, phytotoxicity rating SETVI ([13]; 250 g ai/ha): 40

Compound: Cc1nn(-c2c(Cl)cc(Cl)cc2NC(=O)c2ccc3ccccc3c2)c(=O)n1C(F)F [Compound 6-16]
- pest or weed control at 63 g/ha [1]: 30%
- pest or weed control at 250 g/ha [1]: 50%
- pest or weed control at 63 g/ha [2]: 20%
- pest or weed control at 250 g/ha [2]: 30%
- pest or weed control at 63 g/ha [3]: 100%
- pest or weed control at 250 g/ha [3]: 75%
- pest or weed control at 63 g/ha [4]: 80%
- pest or weed control at 250 g/ha [4]: 60%
- pest or weed control at 63 g/ha [5]: 30%
- pest or weed control at 250 g/ha [5]: 60%
- pest or weed control at 63 g/ha [6]: 100%
- pest or weed control at 250 g/ha [6]: 100%
- pest or weed control at 63 g/ha [7]: 30%
- pest or weed control at 250 g/ha [7]: 90%
- pest or weed control at 63 g/ha [9]: 10%
- pest or weed control at 250 g/ha [9]: 20%
- pest or weed control at 63 g/ha [10]: 0%
- pest or weed control at 250 g/ha [10]: 0%
- pest or weed control at 63 g/ha [11]: 10%
- pest or weed control at 250 g/ha [11]: 30%
- pest or weed control at 63 g/ha [12]: 0%
- pest or weed control at 250 g/ha [12]: 0%
- pest or weed control at 63 g/ha [13]: 60%
- pest or weed control at 250 g/ha [13]: 90%

Compound: COc1c(Cl)cc(F)c(-c2nn(C)c(C(F)(F)F)c2Cl)c1NC(=O)c1ccc2ccccc2c1 [Compound 7-14]
- pest or weed control at 63 g/ha [1]: 40%
- pest or weed control at 250 g/ha [1]: 80%
- pest or weed control at 250 g/ha [2]: 10%
- pest or weed control at 250 g/ha [3]: 100%
- pest or weed control at 250 g/ha [4]: 60%
- pest or weed control at 250 g/ha [5]: 20%
- pest or weed control at 63 g/ha [6]: 70%
- pest or weed control at 250 g/ha [6]: 100%
- pest or weed control at 63 g/ha [7]: 60%
- pest or weed control at 250 g/ha [7]: 70%
- pest or weed control at 63 g/ha [9]: 40%
- pest or weed control at 250 g/ha [9]: 60%
- pest or weed control at 63 g/ha [10]: 30%
- pest or weed control at 250 g/ha [10]: 20%
- pest or weed control at 63 g/ha [11]: 0%
- pest or weed control at 250 g/ha [11]: 40%
- pest or weed control at 63 g/ha [12]: 10%
- pest or weed control at 250 g/ha [12]: 50%
- pest or weed control at 63 g/ha [13]: 0%
- pest or weed control at 250 g/ha [13]: 70%
